The structures appear in SMILES notation.

The test system of assay [1] is diet-induced hyperlipidemia and weight gain. Description: Model of hypertriglyceridemia and obesity (fructose 10% in drinking water). It counts as in vivo, Wistar rats. As to the method: The whey fermented with L. kefiranofaciens […] was tested for its capacity to regulate weight gain and blood lipid levels in a diet-induced rat model of hyperlipidemia. This protocol allows a comparison to niacin (vitB3) in regulating diet-induced hyperlipidemia in rats. […] The hypo-lipidemic effects of the whey fermented with L. kefiranofaciens […] during the fructose treatment period were evaluated. Blood samples are collected before the start of fructose treatment, and once a week for 4 weeks during the induction of hyperlipidemia. Serum levels of triglycerides were measured.

The subject of assay [2] is poloxamer 407 induced hyperlipidemia. Description: Anti-triglyceridemia potential, poloxamer 407 rats (Example 6). Type of assay: in vivo, female Wistar rats. As to the method:
For the experiment, female Wistar rats, 7 weeks old, weighing 125-150 g. were purchased from Charles River Canada. Rats were randomized into 4 different groups, each composed of at least 6 animals. […] They were housed under specific pathogen-free conditions and maintained in a […] light/dark cycle. All animals consumed standard diet and received water ad libitum. MPM was in a lyophilized form and prepared daily by adding 80% of water and mixed to create back a yoghurt-like product. The bacterial strain Lactobacillus […] was routinely cultured in MRS broth (BD Biosciences, Mississauga, ON, Canada) at 37° C. for a period of 24 h. Bacteria were then pelleted by centrifugation at 4000 rpm for 8 minutes and re-suspended at a concentration of 10^9 cells/mL in sterile PBS (Invitrogen). Niacin was dissolved in water in order for the rats to receive a dose of 100 mg of treatment per kg. […] The poloxamer 407 solution for intraperitoneal (i.p.) injection was prepared by combining the agent with sterile water and refrigerating overnight to facilitate dissolution of the polymer by the cold method of incorporation. […] Approximately 1 mL of blood was collected from the jugular vein in 3 mL syringes and immediately transferred in lithium-heparinized plastic tubes (Sarstedt, Montreal, QC, Canada). Tubes were lightly shaken for 10 seconds, and then centrifuged to allow separation of the plasma. Plasma samples were collected in clean 1.5 mL eppendorf and immediately frozen at -80° C. until the time of analysis. For blood collection, each animal was anesthetized using isoflurane (AErrane, Baxter Corporation, Deerfield, Ill., USA). […] Animals were sacrificed after the last blood collection by the CO2 asphyxia method. […] Samples from all experimental groups were analyzed for total cholesterol and triglycerides. All analysis were performed in an independent laboratory (Laboratoire medical Biron, 4105-[…] Blvd, Brossard, Québec, Canada, J4Y 2P4), ISO 9002 certified, offering a reliable plasma lipids quantification service.

Assay [3] shares this test system. Description: Model of hyperlipidemia, poloxamer 407 (Example 8a). It counts as in vivo, Wistar rats. As to the method:
The whey fermented with L. kefiranofaciens R2C2 was tested for their capacity to regulate blood lipid levels in a rat model of hyperlipidemia. […] Wistar rats injected i.p. with poloxamer 407 rapidly develop severe but transient hyperlipidemia. […] The hypo-lipidemic effect of L. kefiranofaciens strains is evaluated in groups of rats pre-treated orally for 7 days before injection of poloxamer. Blood lipids were measured before injection and at 24 and 72 hours following induction of hyperlipidemia. Plasma levels of triglycerides, cholesterol, HDL, LDL and glucose were evaluated.
Group 1: 4 rats, gavage saline Group 2: 4 rats, gavage niacin (100 mg/kg) Group 3: 4 rats, gavage whey fermented with L. kefiranofaciens R2C2 (1 ml per gavage)

Assay [4] has as its system visceral fat in Spontaneous Hypertensive Rat. Description: Weight and fat management, SHR model (visceral fat). Type of assay: in vivo, SHR rats. The following applies: once a day for 56 days, saline 100. As to the method:
The whey fermented with L. kefiranofaciens R2C2 was tested for its capacity to regulate fat distribution as well as weight gain in the Spontaneous Hypertensive Rat model and in ovariectomized rats. The SHR model was used as previously described but used to monitor the levels of visceral fat accumulating in the belly following. The animals were fed with 1 ml of whey fermented with L. kefiranofaciens R2C2 (20% solid) once a day for 56 days (P.O. q1×56)
Group 1: 12 rats, gavage saline Group 2: 12 rats, gavage niacine (100 mg/kg) Group 3: 12 rats, gavage whey fermented with L. kefiranofaciens R2C2 (1 ml per gavage)

The test system of assay [5] is poloxamer 407 induced hyperlipidemia. Description: Poloxamer 407 rat model of hyperlipidemia (strains). Type of assay: in vivo, Wistar rats. The protocol:
The different bacterial strains were tested for their capacity to regulate blood lipid levels in a rat model of hyperlipidemia. […] Wistar rats injected i.p. with poloxamer 407 rapidly develop severe but transient hyperlipidemia. […] The hypo-lipidemic effect of L. kefiranofaciens strains is evaluated in groups of rats pre-treated orally for 7 days before injection of poloxamer. Blood lipids were measured before injection and at 24 and 72 hours following induction of hyperlipidemia. Plasma levels of triglycerides, and cholesterol (LDL) were evaluated.
Group 1: 4 rats, gavage saline Group 2: 4 rats, gavage niacin (100 mg/kg) Group 3: 4 rats, gavage R2C2 (1×10^8 cfu/ml) Group 4: 4 rats, gavage INIX (1×10^8 cfu/ml) Group 5: 4 rats, gavage BioSP (1×10^8 cfu/ml) Group 6: 4 rats, gavage K2 (1×10^8 cfu/ml)

The mark [6] stands for this setting: plasma, before poloxamer, saline 1.55.

As for `O=C(O)c1cccnc1` [Niacin, niacin], the “Levels of triglyceride, % relative to saline on day 0” value in assay [1] (Day 0, saline 100) came out at 100%. Further, the “Levels of triglyceride, % over saline group” value in assay [1] (Day 7 of fructose, saline 260) is reported as 150%; in assay [1] (Day 21 of fructose, saline 270), 160%. In addition, in assay [2] (cholesterol, Controls 100), the “CH levels (72 hours post induction of hyperlipidemia) (%)” value is listed as 33%. The “Triglyceride levels (7-day treatment)” value in assay [2] (plasma, before poloxamer 407, Controls 1.83) is 1.00 mmol/L. In assay [2] (plasma, Controls 95.42), the “Triglyceride levels (72 hours post induction of hyperlipidemia)” value is recorded as 66.96 mmol/L. In addition, the “Triglycerides (mmol/L) after 7 days of treatment” value in assay [3] (setting [6]) and in assay [5] (setting [6]) was 0.97 mmol/L in each case. For the same compound, the “Triglycerides (mmol/L) 72 h post-induction of hyperlipidemia” value in assay [3] (plasma, saline 97.72) was 69.96 mmol/L; in assay [5] (plasma, saline 95.42), 69.96 mmol/L. Besides, the “Plasma triglycerides after pre-treatment of 7 days” value is on record as “plasma triglycerides were reduced” in assay [3] (rat, in vivo) and “plasma triglycerides were reduced” in assay [5] (before poloxamer). Also, in assay [4], the “% of animals with visceral fat” value is on record as 70%. Moreover, the “Plasma triglycerides 72 hours after induction of hyperlipidemia” value in assay [5] (rat, in vivo) is recorded as “most important reduction”.

(Values after patent US20140193383A1, “USE OF LACTOBACILLUS KEFIRANOFACIENS AS A PROBIOTIC AND A SYNBIOTIC” (Technologies Biolactis Inc., priority 2005, published 2014).)
